From patent US10172957B2, “Acid-labile lipophilic prodrugs of cancer chemotherapeutic agents” (priority 2011, dated 2019)
Where two headings read alike, the source gives them in different places.

Experiments:
[1] = tested on: SK-N-AS cells (MDR− Neuroblastoma); test: MTS proliferation assay using SK-N-AS cells; format: cell-based; settings: Homo sapiens, read-out: IC50 in SK-N-AS
Description: SK-N-AS cells were plated in appropriate growth medium at 5×10^3 per well in 100 μL in 96 well tissue culture plates, Falcon, one plate for each drug to be tested. Column 1 was blank; it contained medium, but no cells. The plates were incubated overnight at 37° C. in 5% CO2 to allow attachment.
Drug diluted in culture media was added to the cells at a concentration of 0.005 nM to 10 μM, in quadruplicate. After 48-72 hours of drug exposure, the MTS agent was added to all wells and incubated 1-6 hrs (37° C., 5% CO2), depending on cell type, as per CellTiter 96® AQueous Non-Radioactive Cell Proliferation Assay (MTS), Promega. Plates were processed using a Bio-Tek Synergy HT Multi-detection microtiter plate reader at 490 nanometer wavelength and data were processed with KC4V.3 software. Data plots of drug concentration vs. absorbance were plotted and the concentration resulting in 50% inhibition (IC50) was extrapolated for each of the tested compounds.
As summarized in Table 1, the IC50 value for each tested compound in the SK-N-AS cell line was determined. The clinical comparator drug, paclitaxel, was included in the experiment to allow comparison of the results of the candidate compounds to a clinically relevant standard in the taxane class.

[2] = tested on: MES-SA uterine sarcoma line; test: MTT-based cytotoxicity assay, MES-SA; format: cell-based, human; settings: read-out: IC50 MESSA (Hs)
Source text: (§1) A second evaluation of the cytotoxicity of the acid labile, lipophilic molecular conjugates was undertaken.
(§2) These lines included a uterine sarcoma line, MES-SA, and its doxorubicin-resistant subline, MES-SA/Dx5. See W. G. Harker, F. R MacKintosh, and B. I. Sikic. Development and characterization of a human sarcoma cell line, MES-SA, sensitive to multiple drugs. Cancer Research 43: 4943-4950 (1983); W. G. Harker and B. I. Sikic. Multidrug (pleiotropic) resistance in doxorubicin-selected variants of the human sarcoma cell line MES-SA. Cancer Research 45: 4091 4096 (1985).
(§3) MES-SA/Dx5 cells express high levels of ABCB1 (MDR1) mRNA and its gene product, the P-glycoprotein. MES-SA and MES-SA/Dx5 were purchased from the American Type Culture Collection (ATCC, Manassas, Va.).

CEM/VM-1-5 cells (MDR+) = test: cells; format: cell-based, human; settings: for Degree of resistance (CEM/VM-1-5): IC50 of the resistant line divided by IC50 of sensitive CEM cells
Source text: A second evaluation of the cytotoxicity of the acid labile, lipophilic molecular conjugates was undertaken. […]
(§4) The second set of cells tested, CCRF-CEM or simply CEM, were derived from the blood of a patient with acute lymphoblastic leukemia. G. E. Foley, H. Lazarus, S. Farber, B. G. Uzman, B. A. Boone, and R E. McCarthy. Continuous culture of human lymphoblasts from peripheral blood of a child with acute leukemia. Cancer 18: 522-529 (1965). The subline CEM/VLB100 was developed to be resistant to up to vinblastine at 100 ng/ml. W. T. Beck, T. J. Mueller, and L. R. Tanzer. Altered surface membrane glycoproteins in Vinca alkaloid-resistant human leukemic lymphoblasts. Cancer Research 39: 2070-2076 (1979). Drug resistance is achieved by overexpression of the MDR1 gene. Resistance in the CEM subline designated CEM/VM-1-5, however, is “atypical.” M. K. Danks, J. C. Yalowich, and W. T. Beck. Atypical multiple drug resistance in a human leukemic cell line selected for resistance to teniposide (VM-26). Cancer Research 47: 1297-1301 (1987). The classes of drugs included in the “classic” multiple drug resistance phenotype are Vinca alkaloids, anthracyclines, epipodophyllotoxins and antibiotics. However, CEM/VM-1-5 cells retain sensitivity to the Vinca alkaloids despite resistance and cross-resistance to etoposide, anthracyclines and mitoxantrone. Danks, M. K.; Schmidt, C. A.; Cirtain, M. C.; Suttle, D. P.; Beck, W. T., Altered catalytic activity of and DNA cleavage by DNA topoisomerase II from human leukemic cells selected for resistance to VM-26. Biochemistry 1988, 27, 8861-8869. Resistance in CEM/VM-1-5 cells is effected by over expression of the […]. CEM, CEM/VLB100 and CEM/VM-1-5 cells were obtained from Dr. WT Beck, University of Illinois at Chicago.

[3] = tested on: MES-SA/Dx5 doxorubicin-resistant subline (MDR+); test: cells; format: cell-based, human; settings: for Degree of resistance (MESSA/Dx5): IC50 of the resistant line divided by IC50 of sensitive MES-SA cells
Source text: as §1, §2, §3

CEM/VLB100 cells (MDR+) = test: cells; format: cell-based, human; settings: for Degree of resistance (CEM/VLB100): IC50 of the resistant line divided by IC50 of sensitive CEM cells
Source text: as §1, §2, §4

CCRF-CEM (CEM) cells = test: MTT-based cytotoxicity assay, CEM; format: cell-based, human
Source text: as §1, §2, §4

[4] = SK-N-AS (MDR− Neuroblastoma), MTS, 48-72 hours drug exposure
[5] = Homo sapiens, read-out: IC50 CEM/VM-1-5 (MDR + HTL), CEM/VM-1-5, MTT

CCCCCCCCCCC1(C)OCC(COC(=O)O[C@@H]2C(=O)C=C(C)[C@@H]3C[C@H]4OC(=O)[C@H](OC(=O)CC(O)(C(C)C)C(C)C)[C@H]5[C@@H](C)[C@@H](O)[C@]6(O)OC[C@@]54[C@H]6[C@@]23C)O1 (stereo partly drawn) [ART 332]
IC50 [1, 4]: 1.1 ± 0.5 nM

C=CCCCCOC(=O)O[C@@H]1C(=O)C=C(C)[C@@H]2C[C@H]3OC(=O)C(OC(=O)CC(O)(C(C)C)C(C)C)C4[C@@H](C)[C@@H](O)[C@]5(O)OC[C@@]43C5[C@@]12C (stereo partly drawn) [ART 448]
IC50 [1, 4]: 5 ± 0.7 nM

CC/C=C\C/C=C\C/C=C\C/C=C\C/C=C\C/C=C\CCCOC(=O)O[C@@H]1C(=O)C=C(C)[C@@H]2C[C@H]3OC(=O)C(OC(=O)CC(O)(C(C)C)C(C)C)C4[C@@H](C)[C@@H](O)[C@]5(O)OC[C@@]43C5[C@@]12C (stereo partly drawn) [ART 449]
IC50 [1, 4]: 4 ± 0.5 nM

CCOC(CBr)O[C@@H]1C(=O)C=C(C)[C@@H]2C[C@H]3OC(=O)C(OC(=O)CC(O)(C(C)C)C(C)C)C4[C@@H](C)[C@@H](O)[C@]5(O)OC[C@@]43C5[C@@]12C (stereo partly drawn) [ART 470]
IC50 [1, 4]: 349 ± 15 nM

CC1=CC(=O)[C@@H](OC(CBr)OC(C)(C)C)[C@]2(C)C3[C@]45CO[C@@]3(O)[C@H](O)[C@H](C)C4C(OC(=O)CC(O)(C(C)C)C(C)C)C(=O)O[C@@H]5C[C@@H]12 (stereo partly drawn) [ART 471]
IC50 [1, 4]: 262 ± 12 nM

CCCCCCCCCCCCCCCCCCOC(CBr)O[C@@H]1C(=O)C=C(C)[C@@H]2C[C@H]3OC(=O)C(OC(=O)CC(O)(C(C)C)C(C)C)C4[C@@H](C)[C@@H](O)[C@]5(O)OC[C@@]43C5[C@@]12C (stereo partly drawn) [ART 472]
IC50 [1, 4]: 1.19 ± 0.5 nM

CC1=CC(=O)[C@@H](OC(CBr)OC2CCCCC2)[C@]2(C)C3[C@]45CO[C@@]3(O)[C@H](O)[C@H](C)C4C(OC(=O)CC(O)(C(C)C)C(C)C)C(=O)O[C@@H]5C[C@@H]12 (stereo partly drawn) [ART 473]
IC50 [1, 4]: 12.6 ± 0.9 nM

CC(=O)O[C@H]1C(=O)[C@@]2(C)[C@H]([C@H](OC(=O)c3ccccc3)[C@]3(O)C[C@H](OC(=O)[C@H](O)[C@@H](NC(=O)c4ccccc4)c4ccccc4)C(C)=C1C3(C)C)[C@]1(OC(C)=O)CO[C@@H]1C[C@@H]2O [Paclitaxel, paclitaxel, reference compound]
IC50 ([2]; Homo sapiens, MES-SA): 9 ± 7 nM
IC50 (CEM/VM-1-5 cells (MDR+); [5]): < 11 nM
Degree of resistance (CEM/VM-1-5) (CEM/VM-1-5 cells (MDR+)): 4
Degree of resistance (MESSA/Dx5) [3]: 3105 ± 2416
IC50 ([1]; SK-N-AS): 0.05 ± 0.01 nM

CC[C@]1(O)C[C@@H]2CN(CCc3c([nH]c4ccccc34)[C@@](C(=O)OC)(c3cc4c(cc3OC)N(C)[C@H]3[C@@](O)(C(=O)OC)[C@H](OC(C)=O)[C@]5(CC)C=CCN6CC[C@]43[C@@H]65)C2)C1 [Vinblastine, vinblastine, reference compound]
IC50 ([2]; Homo sapiens, MES-SA): 1.1 ± 0.3 nM
Degree of resistance (CEM/VLB100) (CEM/VLB100 cells (MDR+)): 255 ± 127
IC50 (CCRF-CEM (CEM) cells; Homo sapiens, CCRF-CEM, read-out: IC50 CEM (HTL), CEM human T-lymphoblastoid, MTT): 1 ± 0.8 nM
IC50 (CEM/VM-1-5 cells (MDR+); [5]): 1.3 ± 0.9 nM
Degree of resistance (CEM/VM-1-5) (CEM/VM-1-5 cells (MDR+)): 1.2 ± 0.07
IC50 ([3]; Homo sapiens, MES-SA/Dx5, read-out: IC50 MESSA/Dx5 (MDR + Hs)): 43 ± 12 nM
Degree of resistance (MESSA/Dx5) [3]: 38.5 ± 0.7

doxorubicin [reference compound]
IC50 ([2]; MES-SA human sarcoma, MTT): 2 nM
IC50 (CEM/VLB100 cells (MDR+); CEM/VLB100, MTT, read-out: IC50 CEM/VLB100 (MDR + HTL)): 2100 nM
Degree of resistance (CEM/VLB100) (CEM/VLB100 cells (MDR+)): 150
IC50 (CCRF-CEM (CEM) cells; CEM human T-lymphoblastoid, MTT, read-out: IC50 CEM (HTL)): 14 nM
IC50 (CEM/VM-1-5 cells (MDR+); CEM/VM-1-5, MTT, read-out: IC50 CEM/VM-1-5 (MDR + HTL)): 3060 nM
Degree of resistance (CEM/VM-1-5) (CEM/VM-1-5 cells (MDR+)): 219
Degree of resistance (MESSA/Dx5) [3]: 49
IC50 ([3]; MES-SA/Dx5, MTT, read-out: IC50 MESSA/Dx5 (MDR + Hs)): 97 nM
